Experimental data as given in publication PMC12948223, “HSP70 Interactome‐Mediated Proteolysis Targeting Chimera (HSP70‐PROTAC) for Ferroptosis‐Driven Cancer Treatment” (Advanced Science, 2025).
Read-outs that look alike come from different tables or passages of the source.

Experiments:
HT1080 cells [1] = test system: HT1080 cells; parameters: method as in PMID 39230973; details: same experimental conditions, cited from earlier work
GPX4 [2] = molecular target: T1, GPX4 (Homo sapiens, UniProt P36969); assay: GPX4 degradation by western blot in 786-O cells; type: cell-based; parameters: endogenous in cells; host or cells: 786-O; details: up to 10 µM, 24 h; sentence reads 'neither ... nor ... induced any degradation effect' = no degradation
T1 sequence (P36969 1-170 isoform P36969-2): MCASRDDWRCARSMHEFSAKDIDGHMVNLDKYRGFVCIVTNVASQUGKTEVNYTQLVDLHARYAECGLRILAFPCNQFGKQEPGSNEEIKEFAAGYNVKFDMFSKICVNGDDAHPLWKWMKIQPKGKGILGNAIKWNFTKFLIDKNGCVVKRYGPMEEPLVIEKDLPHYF
Excerpt: As previously mentioned, drug resistance and limited application scope are the significant challenges of traditional PROTAC, due partly to CRBN/VHL mutations or low expression. In this study, we investigated whether the developed HSP70‐PROTAC could address these challenges. Specifically, we examined the developed HSP70‐PROTAC in scenarios where VHL‐ or CRBN‐based PROTACs are ineffective due to intrinsic or acquired resistance. Several previously reported representative GPX4‐targeting degraders, including dGPX4 (CRBN‐based PROTAC, Figure 1A), 8e (VHL‐based PROTAC, Figure 1B), and GDCNF‐11/2 (HSP90‐based HIM‐PROTAC, Figure 1C, the structure of the GDCNF‐11 derivative GDCNF‐2 was not shown) were selected as control agents.^[ [18], [23], [28] ^] […] The clear cell renal cell carcinoma (ccRCC) 786‐O cell line is a well‐established cancer cell model characterized by an intrinsic deficiency in VHL expression.^[ [43], [44], [45] ^] We also confirmed this characteristic through evaluating the VHL expression levels in several randomly selected cancer cell lines (Figure S10A, Supporting Information). We further selected 786‐O cells as a model to confirm whether HSP70‐PROTAC could be used in such cases as an alternative to VHL‐based degraders, because VHL‐based PROTACs cannot be used to treat kidney cancer with a mutation or deletion in the VHL gene.
(§1) Cells were seeded at a density of 4 × 10^5 cells well^−1 in 6‐well plates and allowed to incubate overnight. Cells were incubated with the indicated treatments. Thereafter, the cells were collected and lysed with RIPA buffer containing serine protease and phosphatase inhibitors for 30 min on ice. Proteins were quantified by using a BCA protein assay kit (Beyotime). Subsequently, SDS‐PAGE sample loading buffer was added, and the mixture was heated in a 100 °C metal bath for 10 min to denature the proteins. Protein samples from each group were separated by SDS‐PAGE gel and transferred to a PVDF membrane. After blocking with 5% skim milk for 1 h at room temperature, primary antibodies (GPX4: abcam (#ab125066, 1:1000); Hsp70: abcam (#ab2787, 1:1000); CHIP: HUABIO (#ST7108, 1:1000); UpingBio Technology Co., Ltd. (BRD4, #YP‐Ab‐18034, 1:1000; BAG‐1, #YP‐Ab‐00575, 1:1000); GAPDH: Proteintech (#60004‐1‐Ig, 1:50 000)) were used and incubated at 4 °C overnight on a rotary shaker. After washing the membranes with TBST buffer five times, the membranes were incubated with a second antibody (Cell Signaling Technology, #7074S, 1:1000 and #7076S, 1:1000) at room temperature for 2 h. Ultimately, the membrane was washed five times, and the antibody‐protein complexes were visualized using an ECL luminescence reagent (Biosharp, Shanghai, China). The relative intensities of the bands were analyzed by ImageJ and normalized to a loading control.

GPX4 [3] = molecular target: T1, GPX4; parameters: determine the changes in the endogenous levels of GPX4 by western blot assay; endogenous in cells; host or cells: HT1080 fibrosarcoma cells, including siRNA-knockdown derivatives; method as in PMID 39230973; details: cited from earlier work
ferroptosis = test system: ferroptosis; parameters: method as in PMID 34506134, PMID 35648631; details: cited from earlier work
HT1080 cells [4] = assay: Cell viability CCK-8 assay; type: cell-based, human; details: CCK-8, 48 h, read-out: IC50 (cytotoxicity)
Experimental: To determine whether GPX4 degradation following treatment with HSP70‐PROTACs triggers cancer cell ferroptosis, we initially assessed the viability of HT1080 cells using the CCK‐8 assay after treatment with various concentrations of the tested compounds for 48 h. GPX4 inhibitor ML162, HSP70 inhibitor apoptozole, and two GPX4 non‐degradable HSP70‐PROTAC molecules, GDAz‐Neg1 and GDAz‐Neg2, were selected as controls. […] This remarkable activity might partly be ascribed to the high cell permeability conferred by the piperazine ring. […] We speculated that the potent anti‐proliferative activity of GDAz‐Neg2 may be attributed to the GPX4 inhibition.
The compounds under investigation were initially dissolved in dimethyl sulfoxide (DMSO) to generate stock solutions with a concentration of 10 mM. HT1080 cells or other tested cells were seeded in 96‐well plates at a density of 3000–5000 cells well^−1 and cultured at 37 °C. Following a 24‐h incubation period, the tested compounds were added to the wells at various concentrations (the DMSO stock solutions of all the tested compounds were diluted with culture medium to obtain the designated concentration containing a final concentration of DMSO less than 0.5% (v/v)). The cells were then cultured for an additional 48 or 72 h. Cell Counting Kit 8 (CCK‐8) assay was conducted to examine the effects of the tested compounds on cell viability, and the absorbance was measured at a wavelength of 450 nm. The IC50 values were determined utilizing GraphPad Prism software through nonlinear regression analysis. All experiments were independently repeated at least three times.

HT1080 xenograft tumor = HT1080 xenograft tumor mouse model, antitumor efficacy and safety; type: in vivo; details: 30 mg/kg IP once daily
Experimental: Motivated by the aforementioned in vitro findings, we subsequently sought to evaluate the in vivo antitumor efficacy of GDAz‐3 using an HT1080 xenograft tumor mouse model. The tumor‐bearing mice were randomly divided into six groups, minimizing weight and tumor size differences among the groups (n = 6 in each group). The treatment group mice were administered once daily by intraperitoneal injection (IP) with GDAz‐3 at a dosage of 30 or 60 mg kg^−1, while the control group animals were treated with the corresponding solvent, ML162, and apoptozole at a dosage of 30 mg kg^−1. Additionally, we set up a drug combination group to confirm the superiority of GDAz‐3. After treatment for 17 days, animals were humanely euthanized and the tumors were excised (Figure 7B). […] The advantage of the safety of GDAz‐3 was also determined by the hematoxylin and eosin (H&E) staining. […] In general, compared with the single inhibitor or their combination, the in vivo antitumor study confirmed the efficacy and safety of GDAz‐3.
The experimental procedures of the animal experiments were permitted by the Hangzhou Institute of Medicine (HIM), Chinese Academy of Sciences (AP2024‐07‐0010). Male BALB/c nude mice (6 weeks old) were housed under pathogen‐free conditions, maintained at a constant room temperature, and fed standard rodent chow and water. An HT1080 fibrosarcoma xenograft model in nude mice was established through subcutaneous transplantation. When the tumors emerged, the mice were randomly divided into six groups with six mice in each group: GDAz‐3‐treated at 30 or 60 mg kg^−1 group and control groups, including the vehicle group, and each of the two inhibitor‐treated groups (ML162 and apoptozole) at 30 mg kg^−1, and their combinations. The mice were intraperitoneally (IP) injected daily according to their body weight. Body weight and tumor size were measured every other day, and the tumor volume and body weight were recorded every other day after drug treatment. After treatment, the animals were euthanized by cervical dislocation, and the tumor bulks were peeled off and weighed. The organ tissues (tumor, heart, liver, spleen, lung, and kidney) were harvested and fixed with 4% paraformaldehyde for hematoxylin‐eosin (H&E) and immunohistochemistry (IHC) staining. In addition, the expression of GPX4 in tumor samples was analyzed in vehicle‐ and GDAz‐3‐treated groups by western blot assay.

Hsc70 = molecular target: Hsc70; parameters: method as in PMID 18729127; details: cited from earlier work
Hsp70 = molecular target: Hsp70; parameters: method as in PMID 18729127; details: cited from earlier work
GPX4 [5] = molecular target: T1, GPX4; assay: GPX4 degradation by western blot in HT1080 cells; type: cell-based; parameters: determine the changes in the endogenous levels of GPX4 by western blot assay; endogenous in cells; host or cells: HT1080 fibrosarcoma cells, including siRNA-knockdown derivatives; details: HT1080 cells, 0.3 µM, 24 h (Figure 3A)
Experimental: To evaluate the GPX4 degradation efficiency of the synthesized HSP70‐PROTACs GDAz‐1–14, we first selected ferroptosis‐sensitive HT1080 fibrosarcoma cells (highly‐expressing GPX4) treated with different concentrations (0.1, 0.3, 1, and 3 µM) of these chimeras to determine the changes in the endogenous levels of GPX4 by western blot assay after 24 h treatment. […] This finding underscores the crucial role of the linker in HSP70‐PROTAC‐mediated protein degradation. […] In the case of alkyl chain derivatives (GDAz‐6–10), elongating the length of the linker generally led to a decreased GPX4 degrading activity. […] Thus, GDAz‐3 was selected for further evaluation.
as §1

BRD4 = molecular target: T2, BRD4 (Homo sapiens, UniProt O60885); assay: BRD4 degradation by western blot in MOLT-4 cells; type: cell-based; details: 48 h
T2 construct: effectively degrading additional endogenous bromodomain‐containing protein 4 (BRD4) in cancer cells; endogenous in cells; host or cells: MOLT-4
Excerpt: To expand beyond the GPX4 degradation, we next sought to investigate the potential of the HSP70 complex to facilitate the degradation of additional proteins. We selected oncoprotein bromodomain containing 4 (BRD4), a degradable protein that not only has been widely used as a model substrate for development of new technologies in the TPD field, but also serves as a validated therapeutic target for multiple cancers. We synthesized three heterobifunctional compounds (GDAz‐15–17) by conjugating the HSP70 binding moiety apoptozole to the well‐established BRD4 inhibitor (+)‐JQ‐1 (a potent, specific, and reversible BRD4 inhibitor extensively applied in TPD) via PEG linkers of varying lengths (Figure 8E; Scheme S6, Supporting Information). T lymphoblast MOLT‐4 cell line with BRD4 overexpression was selected for biological evaluation.
as §1, with “After washing the membranes with TBST buffer five times, the membranes were incubated with a second antibody (Cell Signaling Technology, #7074S, 1:1000 and #7076S, 1:1000) at room temperature for 2 h.” left out

## COc1c(C)cnc(Cn2cnc3c(NCCC4CCN(C(=O)Cn5cc(COc6ccc(N(C(=O)CCl)C(C(=O)NCCc7ccccc7)c7cccs7)cc6Cl)nn5)CC4)nc(N)nc32)c1C (centres unmarked) [GDCNF-11]
HT1080 cells [1]; read-out: IC50 (antiproliferative activity)
  IC50: 790 nM
HT1080 cells [1]
  Ferroptosis selectivity index: about 45 fold
GPX4 [2]
  GPX4 degradation in 786-O cells: induced any degradation effect
GPX4 [3]
  Onset of GPX4 protein degradation: initiating GPX4 protein degradation after 12 h

## COC(=O)c1ccc([C@@H]2c3[nH]c4ccccc4c3C[C@@H](C(=O)OC)N2C(=O)CCl)cc1 [RSL3]
ferroptosis
  Ferroptosis selectivity (SI): 3.1

## COc1ccc(-c2nc(-c3cc(C(F)(F)F)cc(C(F)(F)F)c3)n(Cc3ccc(C(N)=O)cc3)c2-c2ccc(OC)cc2)cc1 [Apoptozole, reference compound]
HT1080 cells [4]
  IC50: 17000 nM
HT1080 xenograft tumor
  Toxic effects during treatment: serious toxic effects such as death
Hsc70
  Kd: 210 nM
Hsp70
  Kd: 140 nM
GPX4 [5]
  GPX4 degradation: this degradation effect was not observed

## COc1ccc(-c2nc(-c3cc(C(F)(F)F)cc(C(F)(F)F)c3)n(Cc3ccc(C(=O)NCCOCCOCCOCCOCCNC(=O)C[C@@H]4N=C(c5ccc(Cl)cc5)c5c(sc(C)c5C)-n5c(C)nnc54)cc3)c2-c2ccc(OC)cc2)cc1 [GDAz-17, (S)-4-((2-(3,5-bis(trifluoromethyl)phenyl)-4,5-bis(4-methoxyphenyl)-1H-imidazol-1-yl)methyl)-N-(1-(4-(4-chlorophenyl)-2,3,9-trimethyl-6H-thieno[3,2-f][1,2,4]triazolo[4,3-a][1,4]diazepin-6-yl)-2-oxo-6,9,12,15-tetraoxa-3-azaheptadecan-17-yl)benzamide]
BRD4
  BRD4 degradation: effectively trigger BRD4 degradation
